According to paper PMC7234998, “Quantification of Colistin in Plasma by Liquid Chromatography-Tandem Mass Spectrometry: Application to a Pharmacokinetic Study” (Scientific Reports, 2020):
“Also recorded” adds a separate entry of the source. Like-named read-outs stand apart in the source and are kept apart here. Positions of bridges follow the written chain, without caps; N, C: chain ends. Non-standard residues stand in square brackets, D forms with d. Residues, ends and D or L forms follow the SMILES beside them. *: point of attachment. Heptanoyl(6-Me) = CC(C)CCCCC(=O)*; X1 = CC[C@H](C)CCCCC(=O)*; Dab = NCC[C@H](N)C(=O)O

Key:
[1] = in vivo; conditions: male, Sprague Dawley, rat, iv, 15 mg/kg
Protocol: (§1) To 100 μl rat plasma sample, 5 μl of 500 μg/ml IS was added and followed by addition of 400 μl of 50:50 (v/v) methanol-TCA (10%). The samples were vortex-mixed for 1 min, rota-mixed for 10 min at 40 rpm and then centrifuged at 12,000 rpm for 10 min. Following centrifugation, 400 µl of the supernatant was collected and re-extracted with solid phase extraction (SPE) using SPE (Oasis HLB 1 cc, 30 mg) cartridges. First, the cartridges were conditioned with 500 μl of methanol then 500 μl of water. After that, 400 μl of the supernatant was transferred and then washed with 500 μl of water. The tubes were changed and then the samples were eluted with 150 μl of methanol: water: formic acid (80:19:1%, v/v/v) solution. The elution step was repeated twice, and then 250 μl of the solution was transferred to the low volume inserts and 20 μl of this solution was injected into the LC-MS system.
(§2) Male Sprague Dawley® (MSD) rats (21 weeks ± 3 days of age) with a body weight of 450–550 g [supplied by the Animal Resource Center (ARC), Health Sciences Center (HSC), Kuwait University] were used to estimate the pharmacokinetic profile of colistin. The animals (n = 8) were housed in 12 h/12 h light/dark cycle. […] All the animals were subjected to left jugular vein cannulation, IV drug administration, and subsequent blood sampling. All surgical procedures were carried out under strict aseptic conditions. In addition, all surgical instruments and materials were autoclaved, all solutions were sterile and the surgical procedure was performed with the aid of surgical microscope (Leica wild M690). Animal body temperatures were maintained around 37.6 °C (rectal) by placing the animals on an electronic heating pad throughout the surgical procedure as well as the post-surgical recovery period. About 350 µl of rat blood sample was collected from each animal. From this sample, 50 µl of blood sample was transferred to a capillary tube, sealed with the sealant clay at one end and centrifuged to calculate the Packed Cell Volume (PCV); i.e., Hematocrit. The remaining rat blood sample (300 µl) was centrifuged at 9000 X g for 10 min and aliquots of 100 µl of plasma sample was collected and stored at −70 °C pending analysis.
(§3) Colistin was quantified in the biological samples by the present LC-MS/MS method and then the pharmacokinetic parameters (t1/2, CL, Vd, AUC) were estimated by non-compartmental method employing Kinetica® software, version 5.1 (Thermo Fisher Scientific, Waltham, USA).

[2] = cited from earlier work
Excerpt: Following the validation of the present analytical method, the method was applied to estimate the pharmacokinetic profile of colistin in experimental rats. Choosing the animal species to perform the pharmacokinetic study was based on the similarity of colistin pharmacokinetic profile between animal species and humans. […] The species that has the closest pharmacokinetic profile to humans are rats[43]–[45]. […] This is because of a distribution phase that occurs before the decline in the colistin concentration. This finding is in agreement with previous reports[43],[44],[49]. In the present study, we observed that colistin concentration declined rapidly over 180–240 min which is consistent with earlier findings[45],[49]. […] In the present study, the Vd of colistin was 2.45 ± 1.30 L/kg in ...

[3] = Long-term stability of colistin in rat plasma QC samples at −70 °C; conditions: rat plasma, 20 days, LC-MS/MS
Protocol: (§4) Colistin sulfate was prepared by dissolving 5.5 mg of the powder in 5 ml water to make a stock solution of 1 mg/ml of colistin. PMB sulfate solution of 1 mg/ml was also prepared by dissolving 5.8 mg of PMB sulfate powder in 5 ml water. Both solutions were stored at −70 °C. Calibration standards and quality controls were prepared by spiking different amounts of colistin sulfate stock solution in plasma. Aliquots of colistin sulfate were further diluted to provide standard concentrations of 0.5, 1, 2, 5, 10, 15, and 20 μg/mL (equivalent to: 78, 156, 312, 780, 1560, 2340 and 3120 ng/ml of colistin A and 353, 706, 1412, 3350, 7060, 10590 and 14120 ng/ml of colistin B) whereas, the concentrations of 1.5, 3.5, 7.5 and 17.5 μg/mL (which contained 234, 546, 1170 and 2730 ng/ml of colistin A and 1059, 2471, 5295 and 12355 ng/ml of colistin B) were considered as quality controls. The calibration standards and quality controls were aliquoted (150 μL) into 0.5 ml Eppendorf tubes and stored at −70 °C pending analysis.
as §1
(§5) Various types of stability tests including freeze-thaw stability and long-term stability were assessed. The freeze-thaw stability test was performed by removing the four QC samples out of the storage temperature (−70 °C) and keeping them at room temperature (25 °C) until thawing and then aliquots of the samples were analyzed. After that, the samples were again returned back for freezing in the same storage conditions for 12 to 24 h. The freeze-thaw cycles were repeated five times and 4 replicates of the analytes were assayed. In addition, a long-term stability test was performed to ensure that the stability of the samples for a time that exceeds the interval between the first sample collection and the last sample analysis. Four aliquots of low, medium and high concentrations (QC) were kept for 20 days in the same temperature used to store samples regularly at the lab (−70 °C) then analyzed and compared to the nominal concentration of freshly prepared QC samples. Moreover, the stability in the autosampler (4 °C) was assessed by keeping the processed samples under this condition and assayed periodically at different times for up to 24 hours. In addition, benchtop stability test was performed by keeping the samples at room temperature (25 °C) for six hours and analyzing them during this time. The mean value results of stability tests were calculated and compared to the nominal concentrations.

[4] = Pharmacokinetic study of colistin in rats after IV colistin sulfate, plasma LC-MS/MS, non-compartmental analysis; conditions: male, rat, 15 mg/kg, SD
Protocol: as §1, §2, §3

[5] = Autosampler stability of processed colistin rat plasma samples at 4 °C
Protocol: as §4, §1, §5

[6] = cited from earlier work; remark: listed apart in the source
Protocol: However, colistin sulphate has been reported to be well absorbed after an oral administration in infants. […] The standards and quality control samples concentrations were selected based on the therapeutic range of colistin. The expected colistin serum levels according to the antimicrobial reference laboratory assay service are 5–15 mg/L and 2–4 mg/L for the peak and tough concentrations, respectively. […] Choosing the animal species to perform the pharmacokinetic study was based on the similarity of colistin pharmacokinetic profile between animal species and humans. […] The species that has the closest pharmacokinetic profile to humans are rats[43]–[45].

[7] = Freeze-thaw stability of colistin in rat plasma QC samples; conditions: five freeze-thaw cycles, −70 °C to room temperature
Protocol: as §4, §1, §5

[8] = Benchtop stability of colistin in rat plasma samples at room temperature; conditions: rat plasma, stored for 6 hours at room temperature (25 °C), LC-MS/MS
Protocol: as §4, §1, §5

CC(C)CCCCC(=O)N[C@@H](CCN)C(=O)N[C@H](C(=O)N[C@@H](CCN)C(=O)N[C@H]1CCNC(=O)[C@H]([C@@H](C)O)NC(=O)[C@H](CCN)NC(=O)[C@H](CCN)NC(=O)[C@H](CC(C)C)NC(=O)[C@@H](CC(C)C)NC(=O)[C@H](CCN)NC1=O)[C@@H](C)O [Colistin B, colistin B] ({Heptanoyl(6-Me)}-[Dab]T[Dab][Dab][Dab][dL]L[Dab][Dab]T; lactam 4-C)
level at 0.5 h [1]: 2640 ng/mL
CL of the individual components ([2]; rat, in vivo): 3.05 ± 0.62 mL/min/kg
t1/2 of the major components ([2]; rat, in vivo): 1.52 ± 0.342 h

CC[C@H](C)CCCCC(=O)N[C@@H](CCN)C(=O)N[C@H](C(=O)N[C@@H](CCN)C(=O)N[C@H]1CCNC(=O)[C@H]([C@@H](C)O)NC(=O)[C@H](CCN)NC(=O)[C@H](CCN)NC(=O)[C@H](CC(C)C)NC(=O)[C@@H](CC(C)C)NC(=O)[C@H](CCN)NC1=O)[C@@H](C)O [colistin] (X1-[Dab]T[Dab][Dab][Dab][dL]L[Dab][Dab]T; lactam 4-C)
long-term stability (in words) [3]: stable; also recorded: acceptable
clearance ([4]; Sprague Dawley (MSD)): 25.5 ± 10.6 mL/min/kg
AUC(0-inf) ([4]; Sprague Dawley): 10500 ng·h/mL
Vd ([4]; Sprague Dawley): 2.45 ± 1.29 L/kg
half-life ([4]; Sprague Dawley): 1.07 ± 0.605 h
deviation of result at each level from nominal concentration in the autosampler ([5]; autosampler environment, 4 °C): ≤ 15%
autosampler stability (in words) ([5]; processed samples, autosampler 4 °C, up to 24 hours, LC-MS/MS): stable; also recorded: acceptable
minimum concentration ([6]; Markou and colleagues, steady state): 1.03 ± 0.44 mg/L
maximum steady state concentration ([6]; Markou and colleagues): 2.93 ± 1.24 mg/L
elimination half-life ([6]; colistin, eliminated extra-renally): 3 h
Vd ([6]; humans): 12.4 L
t1/2 ([6]; humans): 3 h
deviation of resulting concentrations from nominal after freeze-thaw ([7]; plasma samples): ≤ 15%
freeze-thaw stability (in words) ([7]; rat plasma, LC-MS/MS): stable; also recorded: acceptable
t1/2 ([2]; rats, another study): 0.928 ± 0.322 h
t1/2 ([2]; rats, dose ranging study, dose 15 mg/kg): 0.54 ± 0.0833 h
Vd ([2]; rats, earlier report): 0.50 ± 0.06 L/kg
AUC0-∞ ([2]; rats, mean ± S.D., other investigators, SD): 2600 ± 470 ng·h/mL
total body clearance (CL) ([2]; rats, reported by other investigators): 11.7 ± 1.8 mL/min/kg
CLR ([2]; rats): 5.2 ± 0.4 mL/min/kg
Vd ([2]; rats): 0.496 ± 0.06 L/kg
t1/2 ([2]; rats): 1.24 ± 0.22 h
benchtop (room temperature) stability (in words) [8]: in-stability
benchtop (room temperature) stability (in words) ([8]; listed as Colistin): not stable
